Source: ChEMBL document CHEMBL4311976, “Design, synthesis and biological evaluation of novel 7H-pyrrolo[2,3-d]pyrimidine derivatives as potential FAK inhibitors and anticancer agents” (Eur J Med Chem, 2019)
pIC50: −log10 of the molar value.

Assays:
[1] = molecular target: Tyrosine-protein kinase BTK (Homo sapiens) (UniProt Q06187); test: Inhibition of recombinant full-legth His-tagged human BTK expressed in baculovirus expression system at 0.5 uM using tyr 01 as substrate in presence of ATP at Km concentration after 1 hr by Z'-LYTE assay relative to control
Sequence of Tyrosine-protein kinase BTK (Homo sapiens) (Q06187 whole entry): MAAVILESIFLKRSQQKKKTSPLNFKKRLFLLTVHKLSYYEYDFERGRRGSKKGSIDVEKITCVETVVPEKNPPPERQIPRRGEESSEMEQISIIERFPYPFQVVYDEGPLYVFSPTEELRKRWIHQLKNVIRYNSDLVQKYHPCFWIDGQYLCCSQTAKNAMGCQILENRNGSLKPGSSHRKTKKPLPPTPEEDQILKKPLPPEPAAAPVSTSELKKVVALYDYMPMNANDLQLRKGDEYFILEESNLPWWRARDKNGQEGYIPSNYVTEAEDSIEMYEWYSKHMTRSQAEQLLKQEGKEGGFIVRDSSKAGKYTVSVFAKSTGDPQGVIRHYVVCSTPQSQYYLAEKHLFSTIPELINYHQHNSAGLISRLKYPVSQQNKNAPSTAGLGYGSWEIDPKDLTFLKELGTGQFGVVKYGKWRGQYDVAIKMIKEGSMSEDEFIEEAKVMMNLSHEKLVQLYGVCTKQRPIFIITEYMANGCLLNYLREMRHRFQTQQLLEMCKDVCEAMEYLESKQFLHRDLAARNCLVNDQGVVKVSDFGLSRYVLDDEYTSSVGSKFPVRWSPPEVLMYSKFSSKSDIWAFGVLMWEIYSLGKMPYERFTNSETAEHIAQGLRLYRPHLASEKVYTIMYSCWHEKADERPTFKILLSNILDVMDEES

[2] = Intrinsic clearance in rat liver at 1 uM measured up to 1 hr in presence of NADPH by LC-MS/MS analysis; type: ADME, tissue-based
[3] = Half life in human liver microsomes at 1 uM measured up to 1 hr by LC-MS/MS analysis; type: ADME, Microsome
A549 [4] = test: Induction of apoptosis in human A549 cells assessed as necrotic cells at 9 uM after 72 hrs by Annexin V-FITC/propidium iodide staining-based flow cytometric analysis (reference value: 1.70%); type: functional
[5] = molecular target: Mitogen-activated protein kinase 1 (Homo sapiens) (UniProt P28482); test: Inhibition of recombinant full length GST-tagged human ERK2 expressed in Escherichia coli at 0.5 uM using Ser/Thr 03 as substrate in presence of ATP at Km concentration after 1 hr by Z'-LYTE assay relative to control
Sequence of Mitogen-activated protein kinase 1 (Homo sapiens) (P28482 whole entry): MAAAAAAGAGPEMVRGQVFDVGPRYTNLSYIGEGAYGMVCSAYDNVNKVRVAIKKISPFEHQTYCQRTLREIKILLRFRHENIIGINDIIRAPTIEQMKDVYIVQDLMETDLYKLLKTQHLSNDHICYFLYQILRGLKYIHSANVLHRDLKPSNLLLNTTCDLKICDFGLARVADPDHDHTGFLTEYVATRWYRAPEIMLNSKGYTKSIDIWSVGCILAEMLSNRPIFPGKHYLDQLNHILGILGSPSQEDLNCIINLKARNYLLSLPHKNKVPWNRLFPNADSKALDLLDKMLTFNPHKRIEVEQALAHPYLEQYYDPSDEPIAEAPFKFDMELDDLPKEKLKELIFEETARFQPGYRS

[6] = Intrinsic clearance in human liver microsomes at 1 uM measured up to 1 hr in presence of NADPH by LC-MS/MS analysis; type: ADME, Microsome; conditions: read-out: CLH
[7] = Metabolic stability in rat liver microsomes assessed as compound remaining at 1 uM measured up to 1 hr in absence of NADPH by LC-MS/MS analysis; type: ADME, Microsome; conditions: read-out: Stability
[8] = Intrinsic clearance in rat liver microsomes at 1 uM measured up to 1 hr in presence of NADPH by LC-MS/MS analysis; type: ADME, Microsome; conditions: read-out: CLH
[9] = Intrinsic clearance in mouse liver microsomes at 1 uM measured up to 1 hr in presence of NADPH by LC-MS/MS analysis; type: ADME, Microsome; conditions: read-out: CLH
CYP2C9 = CYP2C9 (Homo sapiens, UniProt P11712); test: Inhibition of CYP2C9 in human pooled liver microsomes at 10 uM using diclofenac as substrate preincubated for 10 mins followed by NADPH addition and measured after 15 mins by LC/MS/MS analysis relative to control; type: ADME; conditions: probe diclofenac
Sequence of CYP2C9 (P11712 whole entry): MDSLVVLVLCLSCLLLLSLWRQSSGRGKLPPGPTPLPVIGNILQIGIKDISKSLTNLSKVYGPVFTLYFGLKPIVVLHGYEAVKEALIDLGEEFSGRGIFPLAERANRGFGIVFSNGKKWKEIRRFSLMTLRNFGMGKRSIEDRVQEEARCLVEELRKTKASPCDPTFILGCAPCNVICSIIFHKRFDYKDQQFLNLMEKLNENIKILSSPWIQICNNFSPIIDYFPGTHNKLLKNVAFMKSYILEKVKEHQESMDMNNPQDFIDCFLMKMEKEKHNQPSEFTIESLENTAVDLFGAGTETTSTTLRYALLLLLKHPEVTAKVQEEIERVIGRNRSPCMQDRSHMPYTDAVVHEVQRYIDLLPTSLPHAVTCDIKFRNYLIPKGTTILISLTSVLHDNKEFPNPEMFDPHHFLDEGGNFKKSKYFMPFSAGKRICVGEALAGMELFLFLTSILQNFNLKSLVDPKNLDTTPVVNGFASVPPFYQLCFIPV

[10] = Intrinsic clearance in mouse liver at 1 uM measured up to 1 hr in presence of NADPH by LC-MS/MS analysis; type: ADME, tissue-based
A549 [11] = test: Induction of apoptosis in human A549 cells assessed as early apoptotic cells at 9 uM after 72 hrs by Annexin V-FITC/propidium iodide staining-based flow cytometric analysis (reference value: 2.40%); type: functional
[12] = Half life in rat liver microsomes at 1 uM measured up to 1 hr by LC-MS/MS analysis; type: ADME, Microsome
A549 [13] = test: Induction of apoptosis in human A549 cells assessed as early apoptotic cells at 1 uM after 72 hrs by Annexin V-FITC/propidium iodide staining-based flow cytometric analysis (reference value: 2.40%); type: functional
[14] = molecular target: Serine/threonine-protein kinase mTOR (Homo sapiens) (UniProt P42345); test: Inhibition of recombinant GST-tagged human mTOR catalytic domain (1360 to 2549 residues) expressed in baculovirus expression system at 0.5 uM using Ser/Thr 11 as substrate in presence of ATP at Km concentration after 1 hr by Z'-LYTE assay relative to control
Focal adhesion kinase 1 = Focal adhesion kinase 1 (Homo sapiens, UniProt Q05397); test: Inhibition of recombinant N-terminal GST-tagged human FAK (327 to 1052 residues) expressed in baculovirus expression system using TK as substrate incubated for 50 mins in presence of ATP and measured after 1 hr by HTRF assay
Sequence of Focal adhesion kinase 1 (Q05397 whole entry, the tested form may be a part): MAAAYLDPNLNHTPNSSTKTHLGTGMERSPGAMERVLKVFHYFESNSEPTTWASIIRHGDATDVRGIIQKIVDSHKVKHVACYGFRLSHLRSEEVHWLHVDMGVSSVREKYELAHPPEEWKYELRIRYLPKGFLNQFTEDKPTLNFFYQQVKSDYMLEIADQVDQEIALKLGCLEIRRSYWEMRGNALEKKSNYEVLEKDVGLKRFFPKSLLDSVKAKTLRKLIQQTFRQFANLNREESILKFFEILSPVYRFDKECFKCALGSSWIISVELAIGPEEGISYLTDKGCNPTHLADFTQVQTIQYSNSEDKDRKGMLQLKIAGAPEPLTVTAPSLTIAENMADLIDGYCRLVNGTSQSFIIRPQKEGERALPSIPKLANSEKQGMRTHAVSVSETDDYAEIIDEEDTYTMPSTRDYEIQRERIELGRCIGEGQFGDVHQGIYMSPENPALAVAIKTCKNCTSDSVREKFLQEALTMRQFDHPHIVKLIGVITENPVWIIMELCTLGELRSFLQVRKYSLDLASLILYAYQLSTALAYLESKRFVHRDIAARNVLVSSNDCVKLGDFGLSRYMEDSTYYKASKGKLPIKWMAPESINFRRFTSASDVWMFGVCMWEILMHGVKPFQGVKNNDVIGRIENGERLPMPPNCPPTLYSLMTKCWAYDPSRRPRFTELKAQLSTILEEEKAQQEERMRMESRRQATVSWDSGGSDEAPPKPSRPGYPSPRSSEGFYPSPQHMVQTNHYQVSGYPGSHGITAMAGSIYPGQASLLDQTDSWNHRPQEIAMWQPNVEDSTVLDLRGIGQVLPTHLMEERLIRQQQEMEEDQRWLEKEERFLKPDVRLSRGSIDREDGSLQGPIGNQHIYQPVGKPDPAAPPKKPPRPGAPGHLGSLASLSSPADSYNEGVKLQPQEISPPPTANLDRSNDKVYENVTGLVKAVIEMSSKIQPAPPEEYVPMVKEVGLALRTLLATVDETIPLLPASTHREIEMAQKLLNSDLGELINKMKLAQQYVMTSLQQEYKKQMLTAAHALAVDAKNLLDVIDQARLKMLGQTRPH

A549 [15] = test: Induction of apoptosis in human A549 cells assessed as early apoptotic cells at 3 uM after 72 hrs by Annexin V-FITC/propidium iodide staining-based flow cytometric analysis (reference value: 2.40%); type: functional
[16] = molecular target: Serine/threonine-protein kinase PLK1 (Homo sapiens) (UniProt P53350); test: Inhibition of recombinant full length His-tagged human PLK1 expressed in baculovirus expression system at 0.5 uM using Ser/Thr 16 as substrate in presence of ATP at Km concentration after 1 hr by Z'-LYTE assay relative to control
A549 [17] = test: Induction of apoptosis in human A549 cells assessed as late apoptotic cells at 9 uM after 72 hrs by Annexin V-FITC/propidium iodide staining-based flow cytometric analysis (reference value: 1.24%); type: functional
[18] = molecular target: RAC-alpha serine/threonine-protein kinase (Homo sapiens) (UniProt P31749); test: Inhibition of recombinant full-legth His-tagged human AKT1 expressed in baculovirus expression system at 0.5 uM using Ser/Thr 06 as substrate in presence of ATP at Km concentration after 1 hr by Z'-LYTE assay relative to control
Sequence of RAC-alpha serine/threonine-protein kinase (Homo sapiens) (P31749 whole entry): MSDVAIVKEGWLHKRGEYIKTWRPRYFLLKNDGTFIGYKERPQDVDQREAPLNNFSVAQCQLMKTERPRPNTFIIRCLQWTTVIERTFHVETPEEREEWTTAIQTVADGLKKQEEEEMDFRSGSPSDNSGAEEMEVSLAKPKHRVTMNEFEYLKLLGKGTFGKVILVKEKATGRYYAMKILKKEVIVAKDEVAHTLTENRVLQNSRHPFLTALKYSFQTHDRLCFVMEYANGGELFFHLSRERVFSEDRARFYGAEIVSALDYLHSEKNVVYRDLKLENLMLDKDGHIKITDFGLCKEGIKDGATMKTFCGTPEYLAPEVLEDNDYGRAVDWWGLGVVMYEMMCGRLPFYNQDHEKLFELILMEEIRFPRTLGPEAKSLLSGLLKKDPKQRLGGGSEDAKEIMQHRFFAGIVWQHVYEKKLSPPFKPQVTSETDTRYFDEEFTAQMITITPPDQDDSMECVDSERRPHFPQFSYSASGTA

[19] = Metabolic stability in mouse liver microsomes assessed as compound remaining at 1 uM measured up to 1 hr in presence of NADPH by LC-MS/MS analysis; type: ADME, Microsome; conditions: read-out: Stability
A549 [20] = test: Induction of apoptosis in human A549 cells after 72 hrs by Annexin V-FITC/propidium iodide staining-based flow cytometric analysis; type: functional, cell-based
[21] = molecular target: Hepatocyte growth factor receptor (Homo sapiens) (UniProt P08581); test: Inhibition of recombinant full length N-terminal His-tagged human cMET cytoplasmic domain (956 to 1390 residues) expressed in baculovirus expression system at 0.5 uM using tyr 06 as substrate in presence of ATP at Km concentration after 1 hr by Z'-LYTE assay relative to control
[22] = Metabolic stability in human liver microsomes assessed as compound remaining at 1 uM measured up to 1 hr in presence of NADPH by LC-MS/MS analysis; type: ADME, Microsome; conditions: read-out: Stability
[23] = molecular target: CDK2/Cyclin A2 (Homo sapiens) (UniProt P24941+P20248); test: Inhibition of recombinant full-legth His-tagged human CDK2/CyclinA expressed in baculovirus expression system at 0.5 uM using Ser/Thr 12 as substrate in presence of ATP at Km concentration after 1 hr by Z'-LYTE assay relative to control
A549 [24] = test: Induction of apoptosis in human A549 cells assessed as viable cells at 9 uM after 72 hrs by Annexin V-FITC/propidium iodide staining-based flow cytometric analysis (reference value: 94.66%); type: functional; conditions: A549, 72 h, read-out: Activity
[25] = molecular target: Receptor-type tyrosine-protein kinase FLT3 (Homo sapiens) (UniProt P36888); test: Inhibition of recombinant His-tagged human FLT3 (564 to 958 residues) expressed in baculovirus expression system at 0.5 uM using tyr 02 as substrate in presence of ATP at Km concentration after 1 hr by Z'-LYTE assay relative to control
Sequence of Receptor-type tyrosine-protein kinase FLT3 (Homo sapiens) (P36888 whole entry, the tested form may be a part): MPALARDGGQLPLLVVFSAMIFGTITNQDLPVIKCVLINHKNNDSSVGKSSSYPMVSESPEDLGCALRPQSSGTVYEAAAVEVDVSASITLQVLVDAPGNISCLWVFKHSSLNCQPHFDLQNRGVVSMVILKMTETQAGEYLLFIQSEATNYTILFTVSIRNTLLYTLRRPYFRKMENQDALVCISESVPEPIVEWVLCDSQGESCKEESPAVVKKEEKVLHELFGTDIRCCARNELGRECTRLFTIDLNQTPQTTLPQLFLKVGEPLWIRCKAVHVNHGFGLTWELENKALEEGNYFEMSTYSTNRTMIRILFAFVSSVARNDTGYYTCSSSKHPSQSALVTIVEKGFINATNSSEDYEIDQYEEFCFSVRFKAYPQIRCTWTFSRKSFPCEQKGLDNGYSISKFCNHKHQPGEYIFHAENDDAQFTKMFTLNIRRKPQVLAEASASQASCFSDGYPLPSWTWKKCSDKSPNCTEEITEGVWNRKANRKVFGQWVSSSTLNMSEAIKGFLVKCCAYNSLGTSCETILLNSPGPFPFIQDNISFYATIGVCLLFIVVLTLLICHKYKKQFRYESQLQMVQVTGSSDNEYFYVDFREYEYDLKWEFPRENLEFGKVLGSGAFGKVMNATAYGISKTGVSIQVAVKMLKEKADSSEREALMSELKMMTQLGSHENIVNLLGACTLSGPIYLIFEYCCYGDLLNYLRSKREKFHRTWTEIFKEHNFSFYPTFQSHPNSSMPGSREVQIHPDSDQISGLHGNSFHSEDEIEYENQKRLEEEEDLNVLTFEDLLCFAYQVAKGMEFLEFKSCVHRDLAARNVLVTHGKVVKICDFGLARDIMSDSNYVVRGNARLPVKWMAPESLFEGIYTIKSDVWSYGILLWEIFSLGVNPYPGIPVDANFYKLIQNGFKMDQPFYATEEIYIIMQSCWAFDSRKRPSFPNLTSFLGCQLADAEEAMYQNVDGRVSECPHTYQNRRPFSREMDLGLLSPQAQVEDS

[26] = molecular target: Macrophage colony-stimulating factor 1 receptor (Homo sapiens) (UniProt P07333); test: Inhibition of recombinant His-tagged human CSF1R cytoplasmic domain expressed in baculovirus expression system at 0.5 uM using tyr 01 as substrate in presence of ATP at Km concentration after 1 hr by Z'-LYTE assay relative to control
Sequence of Macrophage colony-stimulating factor 1 receptor (Homo sapiens) (P07333 whole entry, the tested form may be a part): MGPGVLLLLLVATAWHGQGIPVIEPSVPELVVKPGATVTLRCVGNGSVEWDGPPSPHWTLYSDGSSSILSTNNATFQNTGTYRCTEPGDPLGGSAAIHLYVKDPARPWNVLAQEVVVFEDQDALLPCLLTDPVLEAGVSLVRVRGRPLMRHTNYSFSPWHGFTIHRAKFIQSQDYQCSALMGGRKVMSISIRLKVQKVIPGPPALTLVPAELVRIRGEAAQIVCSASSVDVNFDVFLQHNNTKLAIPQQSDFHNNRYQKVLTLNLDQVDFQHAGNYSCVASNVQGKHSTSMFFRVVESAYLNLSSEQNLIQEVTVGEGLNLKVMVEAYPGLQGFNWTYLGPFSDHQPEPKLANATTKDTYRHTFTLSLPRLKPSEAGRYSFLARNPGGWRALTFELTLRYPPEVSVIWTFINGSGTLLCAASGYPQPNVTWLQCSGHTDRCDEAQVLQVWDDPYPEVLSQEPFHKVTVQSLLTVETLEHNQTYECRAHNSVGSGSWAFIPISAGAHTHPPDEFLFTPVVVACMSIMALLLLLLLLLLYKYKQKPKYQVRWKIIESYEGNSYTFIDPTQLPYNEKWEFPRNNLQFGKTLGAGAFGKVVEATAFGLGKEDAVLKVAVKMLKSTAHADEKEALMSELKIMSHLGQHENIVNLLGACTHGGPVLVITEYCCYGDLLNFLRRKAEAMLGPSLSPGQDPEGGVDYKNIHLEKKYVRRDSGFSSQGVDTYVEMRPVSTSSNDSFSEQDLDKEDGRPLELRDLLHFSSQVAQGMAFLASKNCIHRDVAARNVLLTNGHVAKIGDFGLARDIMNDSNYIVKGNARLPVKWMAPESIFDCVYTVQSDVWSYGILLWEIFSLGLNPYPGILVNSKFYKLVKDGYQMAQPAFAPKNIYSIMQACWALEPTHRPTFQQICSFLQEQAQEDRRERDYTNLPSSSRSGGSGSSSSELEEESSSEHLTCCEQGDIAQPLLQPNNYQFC

[27] = Half life in mouse liver microsomes at 1 uM measured up to 1 hr by LC-MS/MS analysis; type: ADME, Microsome

inhibition [1]: 0%
CLH [2]: < 17.3 mL/min/kg
half-life at 1 µM [3]: 1.79 h
inhibition [5]: 9%
microsomal CLint at 1 µM [6]: 12.9 µL/min/mg
remaining at 1 h, 1 µM [7]: 76.3%
microsomal CLint at 1 µM [8]: < 9.6 µL/min/mg
microsomal CLint at 1 µM [9]: 10.1 µL/min/mg
inhibition at 0.25 h, 10 µM (CYP2C9): 11.5%
CLH [10]: 39.9 mL/min/kg
half-life at 1 µM [12]: > 2.42 h
inhibition [14]: 0%
pIC50 (Focal adhesion kinase 1): 8.27
inhibition [16]: 43%
inhibition [18]: 0%
remaining at 1 h, 1 µM [19]: 75.4%
inhibition [21]: -2%
remaining at 1 h, 1 µM [22]: 67.9%
inhibition [23]: 1%
inhibition [25]: 13%
inhibition [26]: 12%
half-life at 1 µM [27]: 2.29 h
Compound: COc1cc(C(=O)NC2CCNCC2)ccc1Nc1nc(Nc2ccccc2P(C)(C)=O)c2cc[nH]c2n1
Activity (A549 [4]): 4.15%
Activity (A549 [11]): 30.12%
Activity (A549 [13]): 13.27%
Activity (A549 [15]): 17.3%
Activity (A549 [17]): 36.59%
Activity (A549 [20]): Dose-dependent effect
viability at 9 µM (A549 [24]): 29.1%
